Reference: ChEMBL document CHEMBL1201862, “PubChem BioAssay data set” (2004)
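Protocol summary: plate cells (96-well), add compound at 5 concentrations, incubate 48 h, interpolate endpoints linearly. GI50 = concentration required for 50% inhibition of growth.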 The source made the active and inactive calls. No stated cut-off is given here; in the data, active = GI50 up to about 1.1 µM and inactive = higher.

How the values were obtained:
Test in all cases: inhibition of tumour cell growth, NCI panel, 48 h
MOLT-4 = test system: MOLT-4
U-251 = test system: U-251
Malme-3M = test system: Malme-3M
NCI-H23 = test system: NCI-H23
UACC-257 = test system: UACC-257
SK-OV-3 = test system: SK-OV-3
COLO 205 = test system: COLO 205
NCI-H226 = test system: NCI-H226
SK-MEL-28 = test system: SK-MEL-28
HCC 2998 = test system: HCC 2998
UACC-62 = test system: UACC-62
LOX IMVI = test system: LOX IMVI
CAKI-1 = test system: CAKI-1
RPMI-8226 = test system: RPMI-8226
SNB-75 = test system: SNB-75
CCRF-CEM = test system: CCRF-CEM
SW-620 = test system: SW-620
A549 = test system: A549
A498 = test system: A498
HT-29 = test system: HT-29

Measured: GI50

COc1cc(C=O)cc(/C=N/c2ccc(S(N)(=O)=O)cc2)c1O
inactive: MOLT-4 18 µM | U-251 5.36 µM | Malme-3M 2.88 µM | NCI-H23 > 100 µM | UACC-257 6.92 µM | SK-OV-3 2.9 µM | COLO 205 16.6 µM | NCI-H226 4.3 µM | SK-MEL-28 4.36 µM | HCC 2998 19.3 µM | UACC-62 23.8 µM | LOX IMVI 10.9 µM | CAKI-1 7.38 µM | RPMI-8226 7.13 µM | SNB-75 23.9 µM | CCRF-CEM 9.77 µM | SW-620 24.4 µM | A549 44.1 µM | A498 23.8 µM | HT-29 13.7 µM

CCNCCCCNCC
inactive: MOLT-4 1390 µM | U-251 > 3230 µM | Malme-3M > 3750 µM | NCI-H23 > 3750 µM | UACC-257 > 3750 µM | SK-OV-3 > 3750 µM | COLO 205 > 3750 µM | NCI-H226 2420 µM | SK-MEL-28 > 3750 µM | HCC 2998 > 2670 µM | UACC-62 2750 µM | LOX IMVI > 3750 µM | CAKI-1 > 3750 µM | RPMI-8226 > 3750 µM | SNB-75 > 3750 µM | CCRF-CEM 1600 µM | SW-620 > 3750 µM | A549 > 3750 µM | A498 > 3750 µM | HT-29 > 3750 µM
